We go through seven compounds from patent US10646596B2, “Near-infrared dye-bound transferrin, and contrast agent for photoacoustic imaging, including the near-infrared dye-bound transferrin” (CANON KABUSHIKI KAISHA, priority 2015, dated 2020).

The conditions of data set [1]: in vivo; cited from earlier work.
A short description of data set [2]: Residual rate in blood (amount of dye in blood) in cancer-bearing mouse. The data set is classed as in vivo. Particulars: 24 hours after administration, tail vein blood. As for the experimental part:
(§1) The amount of the dye in a tumor and the amount of the dye in blood with respect to each mouse in the tumor-imaging experiment performed in Example 4 were quantitatively determined to thereby evaluate the tumor accumulation property and the residual rate in blood of each compound.
The residual rate in blood was expressed as the rate of dye transfer (% ID/g) to blood relative to the amount of the dye to be administered per gram of blood (1 mL when the specific gravity was assumed to be 1). A blood sample was taken from the tail vein of the mouse after 24 hours of administration, and the blood sample, 1% Triton (registered trademark) X-100 and DMSO were mixed in the plastic tube in a ratio of 2:9:9. The fluorescence intensity of the blood solution treated as described above was measured in the plastic tube using IVIS (registered trademark) Imaging System 200 Series (manufactured by XENOGEN) to thereby measure the amount of the dye in blood.

Data set [3] relates to colon 26 mouse colon cancer cells (subcutaneous tumor). Description: Evaluation of tumor-imaging contrast by fluorescence imaging in cancer-bearing mouse. The data set is classed as in vivo. Particulars: for fluorescent signal from the tumor site in fluorescence image: 24 hours after administration, FIGURE; for Imaging contrast (fluorescence intensity of tumor site / normal site): 24 hours after tail vein administration, 10 nmol dye per mouse (Alexa Fluor 680-TF (2.0): 31 nmol). An excerpt:
In the fluorescence imaging experiment, a female outbred BALB/c Slc-nu/nu mouse (6-week-old at the time of purchase) (Japan SLC, Inc.) was used. For one week before the mouse was allowed to bear a cancer, normal diet and bed were used to habituate the mouse to an environment where the diet and drinking water were available ad libitum. Before about one week of the imaging experiment, 1×10^6 colon 26 mouse colon cancer cells (RIKEN) were subcutaneously injected into the femur area of the mouse to thereby prepare a cancer-bearing model mouse.
In order to evaluate the tumor-imaging contrast, the fluorescence intensity of a tumor site (measured area: 0.5×0.5 cm) and the fluorescence intensity (selected as a normal site, measured area: 0.5×0.5 cm) of the base of a leg were quantified from the fluorescence imaging data illustrated in FIGURE. The ratio of the intensities, namely, the value obtained by dividing the value of the fluorescence intensity of a tumor site by the value of the fluorescence intensity of a normal site, was expressed by a numeral value as an imaging contrast. […] A larger imaging contrast of the compound of the present invention than the imaging contrast of Alexa Fluor 680-TF (2.0) is considered to be due to the difference in tumor accumulation property, as described later. The number of the dye(s) labeled at which the highest imaging contrast was achieved was 4.8. On the other hand, when the number of the dye(s) labeled exceeded 8, a tendency of the imaging contrast to be reduced was observed.

Data set [4] has the same test system. Briefly: Tumor accumulation property (amount of dye in tumor) in cancer-bearing mouse. The data set is classed as in vivo. Particulars: 24 hours after administration; for Tumor/blood ratio: tumor accumulation / residual rate in blood.
Description: as §1
(§2) The tumor accumulation property was expressed as the rate of dye transfer (% ID/g) to a tumor relative to the amount of the dye to be administered per gram of the tumor. First, the mouse was euthanized by a carbon dioxide gas after 24 hours of administration, and thereafter the tumor was surgically resected. The tumor was transferred to a plastic tube, an aqueous 1% Triton-X100 solution was added at 1.25 times the weight of the tumor, and the tumor was crushed using a plastic pestle. Next, DMSO was added at 20.25 times the weight of the tumor tissue. The fluorescence intensity of the solution of the tumor crushed, treated as described above, was measured in the plastic tube using IVIS (registered trademark) Imaging System 200 Series (XENOGEN) to thereby measure the amount of the dye in the tumor.
(§3) The tumor/blood ratio was calculated by the above measurements. The ratio corresponds to the ratio of the tumor accumulation property to the residual rate in blood, and a higher ratio means a higher tumor-imaging ability.

Experiment in data set [5]: as above
The class given is in vivo. Particulars: mouse, 24 hours after administration.
Description: as §1, §2, §3

For the compound `CC1(C)C(/C=C/C=C/C=C/C=C2/N(CCCCS(=O)(=O)[O-])c3ccc4ccccc4c3C2(C)C)=[N+](CCCCS(=O)(=O)[O-])c2ccc3ccccc3c21.[Na+]` [ICG, indocyanine green, reference compound], the half-life in blood result in data set [1] is on record as “about several minutes”. Also, the tissue uptake at 24 h in data set [2] (mouse, whole blood) was determined as 0.1 %ID/g. In data set [3], the “fluorescent signal from the tumor site in fluorescence image” value (from here on “fluorescent signal from the tumor site”) is reported as “no fluorescent signal was observed” and the “Imaging contrast (fluorescence intensity of tumor site / normal site)” value is recorded as 1.2. The “Rate of tumor accumulation” value in data set [4] is “zero”. Also, the tissue uptake at 24 h in data set [5] (tumor, read-out: Rate of tumor accumulation) was found to be 0 %ID/g. Further, the Kp at 24 h in data set [5] (tumor accumulation / residual rate in blood, read-out: Tumor/blood ratio) is 0.1.
“Alexa Fluor 680-TF (2.0): Transferrin From Human Serum, Alexa Fluor 680 Conjugate, Life Technologies, Product No. T35357, number of dye(s) labeled 2.0 [reference compound]”: the “Residual rate in blood” value in data set [2] was 2.8 % ID/g. The “Imaging contrast (fluorescence intensity of tumor site / normal site)” value in data set [3] was determined as 1.2. Besides, in data set [4], the “Rate of tumor accumulation” value stood at 0.6 % ID/g and the Tumor/blood ratio came out at 0.2.
With “iTF (2.0): Human transferrin covalently bound to ICG-Sulfo-OSu near-infrared dye; number of dye(s) labeled 2.0”, in data set [2], the “Residual rate in blood” value turned out to be 2.8 % ID/g. For the same compound, in data set [3], the “fluorescent signal from the tumor site” value was “the fluorescent signal from the tumor site was observed” and the “Imaging contrast (fluorescence intensity of tumor site / normal site)” value is listed as 3.3. Also, the Tumor/blood ratio in data set [4] came to 0.7.
For the compound “iTF (4.8): Human transferrin covalently bound to ICG-Sulfo-OSu near-infrared dye; number of dye(s) labeled 4.8”, in data set [2], the “Residual rate in blood” value is given as 2.1 % ID/g. Besides, in data set [3], the “fluorescent signal from the tumor site” value is on record as “the fluorescent signal from the tumor site was observed” and the “Imaging contrast (fluorescence intensity of tumor site / normal site)” value is listed as 4.1. The Tumor/blood ratio in data set [4] is on record as 3.3.
Consider “iTF (7.0): Human transferrin covalently bound to ICG-Sulfo-OSu near-infrared dye; number of dye(s) labeled 7.0”, for which the “Residual rate in blood” value in data set [2] came out at 1.8 % ID/g. In addition, in data set [3], the “fluorescent signal from the tumor site” value is “the fluorescent signal from the tumor site was observed” and the “Imaging contrast (fluorescence intensity of tumor site / normal site)” value was 3.4.
Regarding “iTF (8.3): Human transferrin covalently bound to ICG-Sulfo-OSu near-infrared dye; number of dye(s) labeled 8.3”, the “Residual rate in blood” value in data set [2] is 0.7 % ID/g. For the same compound, in data set [3], the “fluorescent signal from the tumor site” value is given as “the fluorescent signal from the tumor site was observed” and the “Imaging contrast (fluorescence intensity of tumor site / normal site)” value was 3.3. The Tumor/blood ratio in data set [4] was found to be 2.9.
Turning to “iTF (8.4): Human transferrin covalently bound to ICG-Sulfo-OSu near-infrared dye; number of dye(s) labeled 8.4”, the “Residual rate in blood” value in data set [2] came out at 0.4 % ID/g. Moreover, in data set [3], the “fluorescent signal from the tumor site” value is “the fluorescent signal from the tumor site was observed” and the “Imaging contrast (fluorescence intensity of tumor site / normal site)” value is 2.3. In data set [4], the “Rate of tumor accumulation” value came to 0.8 % ID/g and the Tumor/blood ratio was 1.9.
